Read-outs that look alike come from different tables or passages of the source.

The nature of one data set: in vitro. Conditions: PAMPA. Background: The PAMPA barrier holds no transporters, so it reflects passive diffusion.
Data set [1] concerns primary porcine brain endothelial cells (PBECs). Conditions: cited from earlier work.
A short description of data set [2]: PAMPA-BBB, prediction of CNS permeability. To be noted: for Prediction of CNS penetration: class from experimental Pe, limits of Di et al., 2003.
On the set-up of data set [3]: method as in PMID 27992940. To be noted: cited from earlier work.

For orientation: Papp means a coefficient for how fast a substance crosses the barrier. `C[C@H]1[C@H](C)CC[C@]2(C(=O)O)CC[C@]3(C)C(=CC[C@@H]4[C@@]5(C)C[C@@H](O)[C@H](O)[C@@](C)(CO)[C@@H]5CC[C@]43C)[C@H]12` [Asiatic acid] returned an apparent permeability coefficient (Papp) at 18 h in “in vitro” of 0.3 ± 0.3 ×10⁻⁶ cm/s. In addition, the “BBB permeability in in vitro BBB model” value in data set [1] is reported as “highly BBB permeable”. In addition, the “Prediction of CNS penetration” value in data set [2] is “CNS− (CNS−, low BBB permeation predicted; Pe, 10–6 cm s^−1 < 2.0)”.
The compound `C[C@H]1[C@H](C)CC[C@]2(C(=O)O)CC[C@]3(C)C(=CC[C@@H]4[C@@]5(C)C[C@@H](O)[C@H](O)[C@@](C)(CO)[C@@H]5[C@H](O)C[C@]43C)[C@H]12` [Madecassic acid] returned a Papp in the data set “in vitro” of 0.27 ± 0.3 ×10⁻⁶ cm/s. In data set [2], the “Prediction of CNS penetration” value is listed as “CNS− (CNS−, low BBB permeation predicted; Pe, 10–6 cm s^−1 < 2.0)”.
In the case of `CCn1cc(C(=O)O)c(=O)c2cc(F)c(N3CCNCC3)nc21` [Enoxacin], the “Prediction of CNS penetration” value in data set [2] is “CNS− (CNS−, low BBB permeation predicted; Pe, 10–6 cm s^−1 < 2.0)”.
As for Madecassoside, in data set [3], the Apparent oral bioavailability entry is “less than 1%”. Moreover, the “BBB permeability in in vitro BBB model” value in data set [1] (primary porcine brain endothelial cells (PBECs)) is on record as “highly BBB permeable”. Besides, the “PAMPA-BBB (Pe) Experimental permeability” value in data set [2] (PBS: DMSO (95 : 5), 18 h, mean ± SEM) was 0.26 ± 0.7 10^−6 cm s^−1. Moreover, the “Prediction of CNS penetration” value in data set [2] is reported as “CNS− (CNS−, low BBB permeation predicted; Pe, 10–6 cm s^−1 < 2.0)”.

Values taken from article PMC8920630 (Evidence-based Complementary and Alternative Medicine : eCAM, 2022).
